In ChEMBL document CHEMBL5291721, “A preclinical secondary pharmacology resource illuminates target-adverse drug reaction associations of marketed drugs” (Nat Commun, 2023):
Where a SMILES comes first, the peptide text is derived from it.

Experiments:
[1] = biological target: Beta-1 adrenergic receptor (Homo sapiens, UniProt P08588); assay type: functional
[2] = biological target: Glutamate receptor ionotropic, NMDA 1 (Rattus norvegicus, UniProt P35439)
[3] = biological target: T1, Alpha-1A adrenergic receptor (Homo sapiens, UniProt P35348); assay type: functional, cell-based
T1 sequence (P35348 whole entry): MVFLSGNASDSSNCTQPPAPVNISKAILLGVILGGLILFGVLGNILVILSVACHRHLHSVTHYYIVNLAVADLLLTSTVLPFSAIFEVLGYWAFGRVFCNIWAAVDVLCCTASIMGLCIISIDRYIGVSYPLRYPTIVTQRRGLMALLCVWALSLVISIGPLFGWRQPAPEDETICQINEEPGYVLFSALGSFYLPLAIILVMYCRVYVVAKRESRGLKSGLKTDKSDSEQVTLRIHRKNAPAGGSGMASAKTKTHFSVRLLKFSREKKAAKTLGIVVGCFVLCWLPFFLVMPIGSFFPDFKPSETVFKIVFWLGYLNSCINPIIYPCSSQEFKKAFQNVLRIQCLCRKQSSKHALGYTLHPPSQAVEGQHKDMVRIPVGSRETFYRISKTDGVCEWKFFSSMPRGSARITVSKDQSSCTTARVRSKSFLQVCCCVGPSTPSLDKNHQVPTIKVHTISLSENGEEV

[4] = biological target: T2, 5-hydroxytryptamine receptor 2C (Homo sapiens, UniProt P28335)
T2 sequence (P28335 whole entry): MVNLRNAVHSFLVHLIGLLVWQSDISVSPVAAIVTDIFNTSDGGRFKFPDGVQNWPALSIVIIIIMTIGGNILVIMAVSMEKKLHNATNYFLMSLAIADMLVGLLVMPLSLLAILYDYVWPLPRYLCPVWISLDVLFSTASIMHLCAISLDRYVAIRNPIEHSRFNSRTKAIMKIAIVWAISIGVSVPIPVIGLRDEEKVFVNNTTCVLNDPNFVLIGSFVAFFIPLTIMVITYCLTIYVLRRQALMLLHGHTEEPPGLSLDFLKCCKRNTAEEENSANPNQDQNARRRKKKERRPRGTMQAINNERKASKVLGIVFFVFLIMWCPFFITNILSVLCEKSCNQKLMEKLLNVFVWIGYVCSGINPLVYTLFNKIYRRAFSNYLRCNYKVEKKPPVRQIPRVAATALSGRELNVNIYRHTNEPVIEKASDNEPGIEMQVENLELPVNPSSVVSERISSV

[5] = biological target: T3, Alpha-2A adrenergic receptor (Homo sapiens, UniProt P08913); assay type: functional, cell-based
T3 sequence (P08913 whole entry): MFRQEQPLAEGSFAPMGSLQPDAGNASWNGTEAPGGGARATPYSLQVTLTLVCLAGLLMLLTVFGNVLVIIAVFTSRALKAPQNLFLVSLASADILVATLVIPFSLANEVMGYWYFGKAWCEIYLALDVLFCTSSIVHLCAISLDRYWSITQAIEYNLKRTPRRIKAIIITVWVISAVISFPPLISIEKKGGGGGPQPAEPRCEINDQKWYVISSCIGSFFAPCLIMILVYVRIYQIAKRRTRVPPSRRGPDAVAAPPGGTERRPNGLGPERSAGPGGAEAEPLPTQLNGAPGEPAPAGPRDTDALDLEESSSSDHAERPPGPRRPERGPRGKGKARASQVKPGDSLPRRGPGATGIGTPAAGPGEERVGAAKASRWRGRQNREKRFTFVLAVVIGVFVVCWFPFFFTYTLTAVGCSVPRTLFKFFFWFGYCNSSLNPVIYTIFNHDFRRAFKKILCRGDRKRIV

[6] = biological target: T4, Thromboxane A2 receptor (Homo sapiens, UniProt P21731)
T4 sequence (P21731 whole entry): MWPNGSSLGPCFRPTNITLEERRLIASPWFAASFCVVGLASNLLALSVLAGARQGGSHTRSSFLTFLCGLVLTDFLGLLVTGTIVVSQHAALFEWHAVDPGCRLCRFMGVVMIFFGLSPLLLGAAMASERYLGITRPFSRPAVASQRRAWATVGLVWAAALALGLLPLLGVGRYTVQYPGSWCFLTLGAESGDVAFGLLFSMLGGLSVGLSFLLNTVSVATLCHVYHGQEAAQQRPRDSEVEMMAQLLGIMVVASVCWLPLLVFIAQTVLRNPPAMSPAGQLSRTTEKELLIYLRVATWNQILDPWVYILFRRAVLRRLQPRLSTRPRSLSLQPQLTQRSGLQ

[7] = biological target: Sodium-dependent noradrenaline transporter (Homo sapiens, UniProt P23975)
Sodium-dependent noradrenaline transporter, sequence (P23975 whole entry): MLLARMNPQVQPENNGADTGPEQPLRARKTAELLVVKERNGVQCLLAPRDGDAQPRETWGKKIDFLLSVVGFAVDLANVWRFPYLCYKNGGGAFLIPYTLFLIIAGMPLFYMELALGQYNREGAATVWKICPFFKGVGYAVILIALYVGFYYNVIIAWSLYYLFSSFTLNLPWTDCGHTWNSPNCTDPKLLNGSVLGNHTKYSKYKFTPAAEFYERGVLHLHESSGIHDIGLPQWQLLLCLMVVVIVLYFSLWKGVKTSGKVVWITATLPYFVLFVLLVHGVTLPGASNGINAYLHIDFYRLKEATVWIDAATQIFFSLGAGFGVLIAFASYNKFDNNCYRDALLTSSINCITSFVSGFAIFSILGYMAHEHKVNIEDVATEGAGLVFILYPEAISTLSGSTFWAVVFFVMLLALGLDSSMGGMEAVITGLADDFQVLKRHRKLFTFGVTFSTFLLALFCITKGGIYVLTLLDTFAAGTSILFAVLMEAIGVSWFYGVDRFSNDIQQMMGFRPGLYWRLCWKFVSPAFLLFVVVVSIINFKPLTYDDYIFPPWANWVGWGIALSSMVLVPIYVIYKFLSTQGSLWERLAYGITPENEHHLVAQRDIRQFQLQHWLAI

[8] = biological target: Gamma-aminobutyric acid receptor subunit alpha-1 (Rattus norvegicus, UniProt P62813); assay type: functional
Gamma-aminobutyric acid receptor subunit alpha-1, sequence (P62813 whole entry): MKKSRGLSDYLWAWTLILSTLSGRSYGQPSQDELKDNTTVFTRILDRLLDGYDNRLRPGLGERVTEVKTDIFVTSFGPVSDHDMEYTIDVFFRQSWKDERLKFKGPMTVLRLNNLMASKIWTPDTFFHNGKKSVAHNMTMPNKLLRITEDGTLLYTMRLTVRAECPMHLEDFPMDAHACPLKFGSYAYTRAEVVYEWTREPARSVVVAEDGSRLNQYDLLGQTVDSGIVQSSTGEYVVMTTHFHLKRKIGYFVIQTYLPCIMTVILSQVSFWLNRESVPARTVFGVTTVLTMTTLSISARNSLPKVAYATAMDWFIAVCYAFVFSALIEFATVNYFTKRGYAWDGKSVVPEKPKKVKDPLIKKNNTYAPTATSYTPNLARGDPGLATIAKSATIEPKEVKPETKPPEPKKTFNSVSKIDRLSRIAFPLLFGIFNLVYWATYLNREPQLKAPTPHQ

[9] = biological target: D(1A) dopamine receptor (Homo sapiens, UniProt P21728); assay type: functional, cell-based
D(1A) dopamine receptor, sequence (P21728 whole entry): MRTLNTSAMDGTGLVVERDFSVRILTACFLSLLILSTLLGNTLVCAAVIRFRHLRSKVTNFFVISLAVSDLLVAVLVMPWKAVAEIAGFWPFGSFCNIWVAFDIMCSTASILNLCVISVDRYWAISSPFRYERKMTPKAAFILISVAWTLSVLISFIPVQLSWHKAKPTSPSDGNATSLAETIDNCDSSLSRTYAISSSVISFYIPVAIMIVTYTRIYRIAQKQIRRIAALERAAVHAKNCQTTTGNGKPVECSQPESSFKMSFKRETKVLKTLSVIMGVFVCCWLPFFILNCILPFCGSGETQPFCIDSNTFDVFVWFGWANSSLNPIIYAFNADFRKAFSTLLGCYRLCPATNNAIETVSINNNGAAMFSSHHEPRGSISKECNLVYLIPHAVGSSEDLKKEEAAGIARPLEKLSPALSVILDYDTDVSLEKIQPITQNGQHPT

[10] = biological target: T5, Progesterone receptor (Homo sapiens, UniProt P06401); assay type: functional
T5 sequence (P06401 whole entry): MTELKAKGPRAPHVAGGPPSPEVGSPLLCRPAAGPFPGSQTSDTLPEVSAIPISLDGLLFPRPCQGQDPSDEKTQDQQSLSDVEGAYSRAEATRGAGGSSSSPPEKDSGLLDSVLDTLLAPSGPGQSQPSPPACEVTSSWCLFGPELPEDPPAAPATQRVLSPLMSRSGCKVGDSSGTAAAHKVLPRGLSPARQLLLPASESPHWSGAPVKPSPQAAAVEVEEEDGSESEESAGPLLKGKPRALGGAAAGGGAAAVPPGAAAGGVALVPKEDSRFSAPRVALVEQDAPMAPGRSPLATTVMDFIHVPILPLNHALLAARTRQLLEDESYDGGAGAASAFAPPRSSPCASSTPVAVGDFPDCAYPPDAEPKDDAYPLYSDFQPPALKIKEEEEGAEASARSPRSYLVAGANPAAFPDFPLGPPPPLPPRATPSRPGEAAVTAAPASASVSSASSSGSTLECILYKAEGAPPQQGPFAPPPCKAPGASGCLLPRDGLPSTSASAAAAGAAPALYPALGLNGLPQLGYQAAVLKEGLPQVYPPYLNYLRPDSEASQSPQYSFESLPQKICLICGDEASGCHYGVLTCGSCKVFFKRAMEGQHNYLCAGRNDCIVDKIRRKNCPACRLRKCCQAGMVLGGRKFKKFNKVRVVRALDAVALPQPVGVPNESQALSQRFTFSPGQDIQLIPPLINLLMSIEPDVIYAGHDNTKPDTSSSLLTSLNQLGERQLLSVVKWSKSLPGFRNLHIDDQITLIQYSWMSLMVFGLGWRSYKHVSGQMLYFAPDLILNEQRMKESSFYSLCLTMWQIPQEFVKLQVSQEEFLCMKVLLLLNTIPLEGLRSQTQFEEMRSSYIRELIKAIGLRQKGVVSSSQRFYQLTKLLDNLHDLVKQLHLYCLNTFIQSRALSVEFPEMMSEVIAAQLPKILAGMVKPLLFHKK
Also: assay procedure not described here.

Beta-1 adrenergic receptor, sequence (P08588 whole entry): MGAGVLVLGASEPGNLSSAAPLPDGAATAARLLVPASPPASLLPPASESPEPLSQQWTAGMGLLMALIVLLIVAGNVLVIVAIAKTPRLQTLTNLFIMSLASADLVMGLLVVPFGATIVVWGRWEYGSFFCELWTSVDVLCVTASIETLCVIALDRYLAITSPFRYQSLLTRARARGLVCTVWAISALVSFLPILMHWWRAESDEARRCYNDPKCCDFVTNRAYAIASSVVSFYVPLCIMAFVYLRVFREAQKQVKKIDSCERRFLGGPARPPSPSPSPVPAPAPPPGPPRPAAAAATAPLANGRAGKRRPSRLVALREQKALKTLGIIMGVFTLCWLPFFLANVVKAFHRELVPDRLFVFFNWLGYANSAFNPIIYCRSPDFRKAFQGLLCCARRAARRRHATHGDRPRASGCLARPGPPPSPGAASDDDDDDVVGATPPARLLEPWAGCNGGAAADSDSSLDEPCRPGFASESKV

| SMILES | AC50 [1] | AC50 [2] | AC50 [3] | AC50 [4] | AC50 [5] | AC50 [6] | AC50 [7] | AC50 [8] | AC50 [9] | AC50 [10] |
| --- | --- | --- | --- | --- | --- | --- | --- | --- | --- | --- |
| CC(C)CN(C[C@@H](O)[C@H](Cc1ccccc1)NC(=O)O[C@H]1CCOC1)S(=O)(=O)c1ccc(N)cc1 | > 10 µM | > 10 µM | > 30 µM | > 30 µM | > 10 µM | > 30 µM | > 10 µM | > 10 µM | > 10 µM | > 10 µM |
| C[C@H](N)C(=O)N[C@@H](CCC(N)=O)C(=O)O [ALANYL GLUTAMINE] (H-Ala-Gln-OH) | > 30 µM | > 30 µM | > 30 µM | > 30 µM | > 30 µM | > 30 µM | > 30 µM | > 30 µM | > 30 µM | > 30 µM |
| COc1cc(N)cn[n+]1-c1ccccc1 [AMEZINIUM METILSULFATE] | > 30 µM | > 30 µM | > 30 µM | > 30 µM | > 30 µM | > 30 µM | 3.9 µM | > 30 µM | > 30 µM | > 30 µM |
| CCN(CC)CCCN(c1ccccc1)C1Cc2ccccc2C1 [APRINDINE] | > 30 µM | > 30 µM | > 30 µM | 8.5 µM | > 30 µM | > 10 µM | 2.3 µM | > 30 µM | > 30 µM | > 30 µM |
| C[C@@H](Cc1ccccc1)N(C)Cc1ccccc1 [BENZPHETAMINE] | > 10 µM | > 10 µM | > 30 µM | > 30 µM | > 10 µM | > 10 µM | 0.036 µM | > 10 µM | > 10 µM | > 10 µM |
| CCCCOC(=O)c1ccc(N)cc1 [BUTAMBEN] | > 30 µM | > 30 µM | > 30 µM | > 30 µM | > 30 µM | > 30 µM | > 30 µM | > 30 µM | > 30 µM | > 30 µM |
| CO/N=C(\C(=O)N[C@@H]1C(=O)N2C(C(=O)O)=C(CSc3nc(C)c(CC(=O)O)s3)CS[C@H]12)c1csc(N)n1 [CEFODIZIME] | > 30 µM | > 30 µM | > 30 µM | > 30 µM | > 30 µM | > 30 µM | > 30 µM | > 30 µM | > 30 µM | > 30 µM |
| CO/N=C(\C(=O)N[C@@H]1C(=O)N2C(C(=O)[O-])=C(C[n+]3ccc(N)n3CCO)CS[C@H]12)c1csc(N)n1 [CEFOSELIS] | > 30 µM | > 30 µM | > 30 µM | > 30 µM | > 30 µM | > 30 µM | > 30 µM | > 30 µM | > 30 µM | > 30 µM |
| COc1ccc(C(Cl)=C(c2ccc(OC)cc2)c2ccc(OC)cc2)cc1 [CHLOROTRIANISENE] | > 30 µM | > 30 µM | > 30 µM | > 30 µM | > 30 µM | > 10 µM | > 30 µM | > 30 µM | > 30 µM | > 30 µM |
| CCCO[C@H]1[C@@H]([C@@H](COCc2ccc(Cl)cc2)OCc2ccc(Cl)cc2)OC(OCC)[C@@H]1O (stereo not given in full) [CLOBENOSIDE] | > 30 µM | > 30 µM | > 30 µM | > 30 µM | > 30 µM | > 30 µM | > 30 µM | > 30 µM | > 30 µM | > 30 µM |
| C=C(c1ccccc1OCc1cccc(Cl)c1)n1ccnc1 [CROCONAZOLE] | > 30 µM | > 10 µM | > 30 µM | 18 µM | > 10 µM | 16.2 µM | 1.8 µM | > 10 µM | > 10 µM | > 30 µM |
| CC(=O)Oc1cccc2c1C(=O)c1c(OC(C)=O)cc(C(=O)O)cc1C2=O [DIACEREIN] | > 30 µM | > 30 µM | 21 µM | > 30 µM | 12 µM | > 30 µM | 13 µM | > 30 µM | > 30 µM | > 30 µM |
| CCc1ccc(C(=O)C(C)CN2CCCCC2)cc1 (stereo not given) [EPERISONE] | > 30 µM | > 30 µM | > 30 µM | > 30 µM | > 30 µM | > 30 µM | > 30 µM | > 30 µM | > 30 µM | > 30 µM |
| CC(=O)OCC(=O)[C@@]1(O)CC[C@H]2[C@@H]3CCC4=CC(=O)CC[C@]4(C)[C@@]3(F)[C@@H](O)C[C@@]21C [FLUDROCORTISONE ACETATE] | > 30 µM | > 30 µM | > 30 µM | > 30 µM | > 30 µM | > 30 µM | > 30 µM | > 30 µM | > 30 µM | 8.2 µM |
| CC(=O)[C@@]1(O)CC[C@H]2[C@@H]3C[C@H](C)C4=CC(=O)C=C[C@]4(C)[C@@]3(F)[C@@H](O)C[C@@]21C [FLUOROMETHOLONE] | > 10 µM | > 10 µM | > 30 µM | > 30 µM | > 10 µM | > 10 µM | > 10 µM | > 10 µM | > 10 µM | 0.053 µM |
